Molecular target: T1, dopamine D3 receptor (D3), Sf9 (Homo sapiens, UniProt P35462)
T1 construct: gene DRD3; full-length from pCMV5-hD3, no tag mentioned; membranes of Sf9 cells (baculovirus)
Experiment: [3H]spiperone competition binding, Sf9 membranes
Settings: read-out: D3 / + NaCl

T1 sequence (P35462 whole entry): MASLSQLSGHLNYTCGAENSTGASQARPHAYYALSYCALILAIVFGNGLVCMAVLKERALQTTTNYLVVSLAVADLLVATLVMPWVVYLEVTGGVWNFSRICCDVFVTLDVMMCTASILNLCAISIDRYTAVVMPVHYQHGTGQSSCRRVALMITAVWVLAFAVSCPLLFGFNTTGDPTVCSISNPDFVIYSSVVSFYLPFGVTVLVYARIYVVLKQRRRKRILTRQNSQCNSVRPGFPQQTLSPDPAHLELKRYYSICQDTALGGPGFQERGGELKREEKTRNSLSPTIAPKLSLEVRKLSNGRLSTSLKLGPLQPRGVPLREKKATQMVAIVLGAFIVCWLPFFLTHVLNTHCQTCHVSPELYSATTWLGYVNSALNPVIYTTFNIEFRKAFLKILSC

| Compound | IC50 [nM] |
| --- | --- |
| COc1ccccc1N1CCN(CCCCNC(=O)c2ccc(-c3ccc(C(C)=O)cc3)cc2)CC1 [GR 103691] | 0.46 |
| CCCN(CCC)C1Cc2cc(OC)c(OC)cc2C1 [U 99194] | 532 |

From paper PMC4933336, “Examining the Effects of Sodium Ions on the Binding of Antagonists to Dopamine D2 and D3 Receptors” (PLoS ONE, 2016)
